Measured values published in patent US8501806B2, “Methods for preventing or reducing colon carcinogenesis” (Nogra Pharma Limited, priority 2008, dated 2013).

What was measured:
4T1-derived metastasis = test: 4T1 spontaneous metastasis, clonogenic metastasis assay; format: in vivo, Balb/c mice; details: FIG. 11; daily i.p. 8 mg/kg/mouse, sacrificed at day 35
Description: Spontaneous metastases were measured by adapting methods described previously by Pulaski and Ostrand-Rosenberg (Cancer Research 58, 1486-1493, 1998). 4T1 tumor cells (1×10^5 cells in 100 μl 1×PBS) were injected s.c. in the abdominal mammary gland of 8-10 weeks old female Balb/c mice. Three days after 4T1 injection, mice received daily i.p. administration of compound 14 (8 mg/kg/mouse) or PBS (control). Mice were monitored over the time for weight loss and sacrificed at day 35. Lungs and liver were removed from each mouse, and treated as follows: liver samples were finely minced and digested with an enzyme solution containing 1×PBS, 0.01% BSA, 1 mg/ml hyaluronidase, and 1 mg/ml collagenase type I for 20 min at 37° C. on a platform rocker; lung samples were finely minced and digested with an enzyme cocktail containing 1×PBS, 1 mg/ml collagenase type IV and 10 units/ml elastase for 1 h at […] on a rotating wheel. At the end, samples were filtered through 70 μm nylon cell strainers and washed three times with 1×PBS. The resulting cell preparations were resuspended and plated neat or serially diluted in 10-cm tissue culture dishes in 20 ml of medium containing 60 μM 6-thioguanine. Suspensions were incubated in 10% CO2-air atmosphere at 37° C. for clonogenic growth. […] Total colony-forming cells were calculated on a per-organ basis. […]

[1] = system: established CT26-derived tumors; test: Growth of established CT26 xenografts; format: in vivo, Balb/c mice; details: FIG. 7D; subcutaneously 8 mg/kg mouse/day for 2 weeks from day 14
Description: CT26 cells (1×10^5 cells in 300 μl PBS 1×) were injected subcutaneously into the flank of Balb/c mice, whose fur was shaved and depilated. Five groups of 10 mice each were implanted with CT26. The first group received daily subcutaneously 300 μl PBS (control), the remaining groups received daily subcutaneously compound 14 at a final dose of 1, 4, 8, or 12 mg/kg/mouse dissolved in 300 μl PBS. Both compound 14 and PBS were administered starting on day 3. Further experimentation was performed to assess whether compound 14 had anti-cancer activity when administered systemically. […] Mice were monitored over the time for weight loss. After 2 weeks, mice were sacrificed, tumors were photographed, then excised and their mass calculated according to the following formula: ½×(short diameter)×(long diameter)×(height). Total extracts were prepared from xenografts and analyzed for cyclin D1 protein content by Western blotting using a commercially available antibody (Santa Cruz Biotechnology). […] After 2 weeks, mice with similar tumor size, determined by caliper measurements, were divided into three groups of 8 mice each. […] Mice were monitored over the time for weight loss. After 2 weeks, mice were sacrificed, tumors were photographed, then excised and their mass calculated as described above. […] Mice were monitored over the time and sacrificed at day 28.

fibroblasts = test: Proliferation of normal fibroblasts; format: cell-based; details: FIG. 4B; 48 hours
HCT-116 cells = test: CFSE cell proliferation assay, HCT-116 cells; format: cell-based, human
Description: All reagents used in Examples 1-3 were from Sigma-Aldrich (Milan, Italy) unless specified. Compounds were dissolved as a 25 mM stock solution in culture medium, and the pH of the solution was adjusted to 7.4, if necessary, with NaOH. The human CRC cell lines, HCT-116 and HT-29 (expressing either wild-type or mutated p53 respectively), were maintained in McCoy's 5A supplemented with 10% fetal bovine serum (FBS), 1% penicillin/streptomycin, and 50 μg/ml gentamycin. The murine CRC cell line, CT26, was maintained in RPMI 1640 medium supplemented with 10% FBS and 1% penicillin/streptomycin.
For cell growth assays, serum-starved HCT-116, HT-29, and CT26 cells were plated in appropriate complete medium at 2×10^5 cells/ml/well in 6-well culture dishes and allowed to adhere overnight. Cells were then labeled with carboxyfluorescein diacetate succinimidyl ester (CFSE) (Invitrogen, Milan Italy) at 37° C. according to the manufacturer's instruction. After 30 minutes, the medium was removed and fresh media containing 0.05% bovine serum albumin (BSA), and increasing doses of 5-ASA or disclosed compounds were added. After 24 hours, cells were collected, washed twice with PBS 1×, and then incubated with 5 μg/ml of PI for 15 minutes, at 4° C. in the dark. CFSE and/or PI-positive cells were determined by flow cytometry (Becton Dickinson, FACSCalibur, Milan, Italy). To determine whether the negative effect of compound 14 (2-methoxy-5-amino-N-hydroxybenzamide) on proliferation was reversible, cells were cultured in the presence or absence of compound 14 (1.5 and 3 mM) for 24 hours (1st culture). Afterwards, cells were either left untreated or extensively washed and cultured with medium in the absence of compound 14 for additional 24 hours (2nd culture). The percentage of proliferating cells was then evaluated by flow cytometry.

## COc1ccc(N)cc1C(=O)NO [compound 14, 2-methoxy-5-amino-N-hydroxybenzamide]
4T1-derived metastasis
  number of liver metastatic tumor cells: reduction
  number of lung metastatic tumor cells: reduction
[1]
  tumor size of established CT26-derived tumors vs PBS: significantly reduced
fibroblasts
  proliferation of normal fibroblasts: did not affect
HCT-116 cells; FIG. 1, CFSE-labeled HCT 116 cells, increasing doses
  anti-proliferative effect (percentage of growth inhibition): pronounced anti-proliferative effect
HCT-116 cells; FIG. 1, CFSE-labeled HCT 116 cells, increasing doses, 24 hours
  potency relative to 5-ASA in inhibiting CRC cell proliferation: about ten times more potent than 5-ASA
HCT-116 cells; FIG. 2, graded doses
  proliferation of HCT-116 cells: dose-dependently inhibited
HCT-116 cells; FIG. 3A, increasing doses for 24, 48, and 72 hours
  time dependence of anti-proliferative effect: time-dependent
HCT-116 cells; FIG. 3B, 1.5-3 mM for 24 hours, then washed and cultured 24 hours without compound
  reversibility of anti-proliferative effect: fully reversible
